Source: the NIST ThermoML archive (doi:10.1021/je700294p)

Assays:
[1] = xn = mol fraction of the nth substance listed; conditions: 101 kPa, Liquid
[2] = excess molar enthalpy (molar enthalpy of mixing); xn = mol fraction of the nth substance listed; conditions: 101 kPa, Liquid

CCCC[n+]1cccc(C)c1.F[B-](F)(F)F [1-butyl-3-methylpyridinium tetrafluoroborate] + CCO
Conditions	excess molar enthalpy [kcal/mol]	mass density [kg/m3]
[1], 298.15 K, x1 = 0.0518	–	851.1
[1], 298.15 K, x1 = 0.0719	–	872.9
[1], 298.15 K, x1 = 0.1054	–	905.6
[1], 298.15 K, x1 = 0.1999	–	975.5
[1], 298.15 K, x1 = 0.2539	–	1006.2
[1], 298.15 K, x1 = 0.3	–	1028.2
[1], 298.15 K, x1 = 0.4054	–	1068.6
[1], 298.15 K, x1 = 0.5082	–	1098.9
[1], 298.15 K, x1 = 0.5895	–	1118
[1], 298.15 K, x1 = 0.664	–	1133
[1], 298.15 K, x1 = 0.7275	–	1144.5
[1], 298.15 K, x1 = 0.7682	–	1151
[1], 318.15 K, x1 = 0.0401	–	821.1
[1], 318.15 K, x1 = 0.0671	–	851
[1], 318.15 K, x1 = 0.0992	–	882.7
[1], 318.15 K, x1 = 0.1497	–	924.5
[1], 318.15 K, x1 = 0.2531	–	989.5
[1], 318.15 K, x1 = 0.3062	–	1015.1
[1], 318.15 K, x1 = 0.4041	–	1053
[1], 318.15 K, x1 = 0.5002	–	1082.2
[1], 318.15 K, x1 = 0.5998	–	1106.3
[1], 318.15 K, x1 = 0.6632	–	1118.8
[1], 318.15 K, x1 = 0.7118	–	1127.7
[1], 318.15 K, x1 = 0.7904	–	1141
[2], 298.15 K, x1 = 0.0052	0.0354	–
[2], 298.15 K, x1 = 0.0159	0.0989	–
[2], 298.15 K, x1 = 0.0279	0.148	–
[2], 298.15 K, x1 = 0.0457	0.203	–
[2], 298.15 K, x1 = 0.0691	0.26	–
[2], 298.15 K, x1 = 0.0972	0.312	–
[2], 298.15 K, x1 = 0.1132	0.338	–
[2], 298.15 K, x1 = 0.1263	0.362	–
[2], 298.15 K, x1 = 0.128	0.368	–
[2], 298.15 K, x1 = 0.145	0.396	–
[2], 298.15 K, x1 = 0.1585	0.405	–
[2], 298.15 K, x1 = 0.1639	0.418	–
[2], 298.15 K, x1 = 0.1838	0.445	–
[2], 298.15 K, x1 = 0.2062	0.47	–
[2], 298.15 K, x1 = 0.2305	0.495	–
[2], 298.15 K, x1 = 0.2577	0.515	–
[2], 298.15 K, x1 = 0.2878	0.531	–
[2], 298.15 K, x1 = 0.3217	0.544	–
[2], 298.15 K, x1 = 0.3623	0.546	–
[2], 298.15 K, x1 = 0.4085	0.527	–
[2], 298.15 K, x1 = 0.4689	0.484	–
[2], 298.15 K, x1 = 0.5396	0.425	–
[2], 298.15 K, x1 = 0.6277	0.348	–
[2], 298.15 K, x1 = 0.7386	0.257	–
[2], 298.15 K, x1 = 0.8712	0.14	–
[2], 298.15 K, x1 = 0.9405	0.0727	–
[2], 318.15 K, x1 = 0.0123	0.0626	–
[2], 318.15 K, x1 = 0.0273	0.129	–
[2], 318.15 K, x1 = 0.0472	0.201	–
[2], 318.15 K, x1 = 0.0704	0.269	–
[2], 318.15 K, x1 = 0.098	0.342	–
[2], 318.15 K, x1 = 0.1279	0.411	–
[2], 318.15 K, x1 = 0.1612	0.475	–
[2], 318.15 K, x1 = 0.1789	0.508	–
[2], 318.15 K, x1 = 0.2034	0.544	–
[2], 318.15 K, x1 = 0.2335	0.577	–
[2], 318.15 K, x1 = 0.2681	0.605	–
[2], 318.15 K, x1 = 0.3063	0.627	–
[2], 318.15 K, x1 = 0.3498	0.644	–
[2], 318.15 K, x1 = 0.4055	0.645	–
[2], 318.15 K, x1 = 0.4787	0.615	–
[2], 318.15 K, x1 = 0.5648	0.549	–
[2], 318.15 K, x1 = 0.6576	0.451	–
[2], 318.15 K, x1 = 0.7668	0.326	–
[2], 318.15 K, x1 = 0.881	0.184	–
